Data reported in patent publication US20040071768A1, “Compositions and methods for treating cancer” (Inex Pharmaceuticals Corporation, priority 1999, published 2004).

Experiments:
[1] = tested on: PC3 prostate xenografts; test: Single dose anti-tumor activity, PC3 prostate xenograft; format: in vivo; settings: PC-3
Experimental: (§1) Male NCr nude mice were injected intravenously via the lateral tail vein on day 9 post-tumor-implantation with saline (♦), NVB at 45.0 mg/kg (◯) and 34.0 mg/kg (□), or NVB-TCS at 15.0 mg/kg (●) and 11.0 mg/kg (▪) at a drug-to-lipid ratio of 0.3:1 (w/w). The arrow on the x-axis denotes the day of drug administration. Data points represent mean±SEM (n=10).
Vinorelbine is used clinically in the treatment of advanced NSCLC and metastatic breast cancer.
(§2) Tumor models investigated included RXF393 (renal), MX-1 (breast), LX-1 (small cell lung cancer), PC-3 (prostate), and HT29 (colon). These models were known to be sensitive to vinorelbine. Tumor fragments were implanted subcutaneously in the flank of NCr nu/nu mice. […] Animal weights and tumor size were determined twice weekly.

[2] = tested on: MX-1 breast xenografts; test: Single dose anti-tumor activity, MX-1 breast xenograft; format: in vivo
Experimental: as §1, with “Female” for “Male”, “8” for “9”, “34.0” for “45.0”, “25.5” for “34.0”, “(n=10). […]” for “(n=10).”
as §2

Structure (SMILES): CCC1=C[C@@H]2CN(C1)Cc1c([nH]c3ccccc13)[C@@](C(=O)OC)(c1cc3c(cc1OC)N(C)[C@H]1[C@@](O)(C(=O)OC)[C@H](OC(C)=O)[C@]4(CC)C=CCN5CC[C@]31[C@@H]54)C2 [VRL, 5′-noranhydrovinblastine]
- % T/C (optimal % T/C following final treatment) ([1]; single i.v. dose 34 mg/kg): −3%
- DRD (drug related deaths) ([1]; single i.v. dose 34 mg/kg): 2/10
- MWL (maximum mean weight loss per treatment group) ([1]; single i.v. dose 34 mg/kg): −18.7
- NCI Score ([1]; single i.v. dose 34 mg/kg): 2
- T-C (tumor growth delay to 1000 mm^3) ([1]; single i.v. dose 34 mg/kg): 34
- TF (tumor free animals at the end of study) ([1]; single i.v. dose 34 mg/kg): 1/8
- % T/C (optimal % T/C following final treatment) ([1]; single i.v. dose 45 mg/kg): Toxic
- DRD (drug related deaths) ([1]; single i.v. dose 45 mg/kg): 5/10
- MWL (maximum mean weight loss per treatment group) ([1]; single i.v. dose 45 mg/kg): −25.4
- TF (tumor free animals at the end of study) ([1]; single i.v. dose 45 mg/kg): 4/5
- % T/C (optimal % T/C following final treatment) ([2]; single i.v. dose 25.5 mg/kg): 13%
- DRD (drug related deaths) ([2]; single i.v. dose 25.5 mg/kg): 1/10
- MWL (maximum mean weight loss per treatment group) ([2]; single i.v. dose 25.5 mg/kg): −14.8
- NCI Score ([2]; single i.v. dose 25.5 mg/kg): 1
- T-C (tumor growth delay to 1000 mm^3) ([2]; single i.v. dose 25.5 mg/kg): 13
- TF (tumor free animals at the end of study) ([2]; single i.v. dose 25.5 mg/kg): 1/9
- % T/C (optimal % T/C following final treatment) ([2]; single i.v. dose 34 mg/kg): 11%
- DRD (drug related deaths) ([2]; single i.v. dose 34 mg/kg): 0/10
- MWL (maximum mean weight loss per treatment group) ([2]; single i.v. dose 34 mg/kg): −17.4
- NCI Score ([2]; single i.v. dose 34 mg/kg): 1
- T-C (tumor growth delay to 1000 mm^3) ([2]; single i.v. dose 34 mg/kg): 16
- TF (tumor free animals at the end of study) ([2]; single i.v. dose 34 mg/kg): 3/10
